According to paper PMC9697446 (International Journal of Molecular Sciences, 2022):
Where two headings read alike, the source gives them in different places.

Key:
EeAChE PAS = target: T1, EeAChE PAS (Electrophorus electricus, UniProt O42275); experiment: biochemical; type: binding; conditions: for inhibition at 3 µM: read-out: PI Displacement, 3 µM; for inhibition at 20 µM: read-out: PI Displacement, 20 µM
T1 construct: purchased Sigma-Aldrich type VI-S
Method: PIand donepezil were purchased from Sigma-Aldrich. […] As the source of the enzyme, electric eel (Elecrophorus electricus) AChE (EeAChE, type VI-S, lyophilized powder, Sigma-Aldrich, Saint Louis, MO, USA) was used. The applicability of this enzyme was shown earlier
To determine the percentage of displacement of PI from the EeAChE PAS, EeAChE (with a final concentration of 7 μM) was incubated with the test compound at a concentration of 3 and 20 μM in 1 mM Tris-HCl buffer pH 8.0, 25 °C for 15 min. Next, PIsolution (with a final concentration of 8 μM) was added, the samples were incubated for 15 min, and the fluorescence spectrum (530 nm (exc.) and 600 nm (emiss.)) was taken. Donepezil and decamethonium were used as reference compounds. The blank contained PI of the same concentration in 1 mM Tris-HCl buffer pH 8.0. The measurements were carried out in triplicate on a FLUOStar Optima microplate reader).
The percentage of displacement of PIfrom the peripheral anionic site of AChE was calculated using the following formula:% Displacement = 100 − (IFAChE+Propidium+inhibitor/IFAChE+Propidium) × 100,(1) where IFAChE+Propidium is the fluorescence intensity of the propidium associated with AChE in the absence of the test compound (taken as 100%) and IFAChE+Propidium+inhibitor is the fluorescence intensity of the propidium associated with AChE in the presence of the test compound.

[1] = system: Fe3+-induced LP in rat brain homogenate; experiment: Fe3+-induced lipid peroxidation in rat brain homogenate; type: biochemical; conditions: for IC50: LP induced by 0.5 mM Fe3+ in rat brain homogenate, mean ± SD, read-out: Inhibition of LP IC50; for Pro-oxidant activity in rat brain homogenate: 10 nM to 30 µM
Method: The influence of MB and its conjugates with indole derivatives on Fe^3+-induced lipid peroxidation (LP) in rat brain homogenate was studied over a broad concentration range (from 10 nM to 30 µM).
On the day of the experiment, adult Wistar male rats that fasted overnight were euthanized in a CO2 chamber, followed by decapitation. The procedure was in compliance with the Guidelines for Animal Experiments at the Institute of Physiologically Active Compounds of the Russian Academy of Sciences. The brains were rapidly removed and homogenized in 0.12 M HEPES/0.15M NaCl, pH 7.4 buffer (HBS) ([…]) and used immediately for the assay.
The protein concentrations in rat brain homogenate (RBH) were determined by the biuret assay using bovine serum albumin as the standard.
The effect of the compounds on LP of the RBH was studied at […] in 0.25 mL of RBH (2 mg of protein·mL^−1) in the presence of the compounds or the vehicle (DMSO). Lipid peroxidation was induced by Fe^3+ (0.5 mM Fe(NH4)(SO4)2) as an oxidant.
The reaction mixture was incubated for 30 min at 37 °C, then quenched by adding 0.4 mL of quench medium containing 250 mM HCl and 15% (w/v) trichloroacetic acid. The samples were then centrifuged for 10 min at 10,000× g, and 75 µL of the supernatant was transferred to a 96-well plate. Next, 75 µL of 0.8% (w/v) 2-thiobarbituric acid (TBA) was added. The plate was then sealed, heated at 95 °C for 15 min, cooled to 4 °C, and the absorbance at 530–620 nm was measured using a Wallac Victor 3 1420 Multilabel Counter (Perkin Elmer, Turku, Finland).
All the experiments were performed as four independent runs with different brain homogenate preparations and three repeated probes in each run. The average results for each run were normalized between the positive control with the vehicle and Fe^3+ and negative control with only the vehicle. They were presented as the IC50 ± SD values for the antioxidant activities of the compounds which were calculated using GraphPad Prism 7.00 software (San Diego, CA, USA).

[2] = system: isolated rat liver mitochondria; experiment: Mitochondrial membrane potential and calcium-induced depolarization (safranine O); type: biochemical; conditions: for Effect on calcium-induced mitochondrial depolarization at 30 μM: 12.5 µM CaCl2; for ΔΨm, CI (g/m) / ΔΨm, CII (s/r): depolarization after 10-min incubation with 30 µM compound, mean ± SD; for ΔΨm, CI (g/m): complex I substrates (glutamate, malate); for ΔΨm, CII (s/r): complex II substrate (succinate) in the presence of rotenone
Method: The primary screening of new compounds to determine their effect on the mitochondrial membrane potential formed due to respiratory chain (RC) activity after additions of RC substrates was performed on isolated rat liver mitochondria. It can be used to estimate the probability of the potential toxicity of these compounds. Furthermore, the influence of the compounds on the calcium-dependent depolarization of isolated rat liver mitochondria in this assay made it possible to evaluate the effect on the mitochondrial permeability transition.
Rat liver mitochondria were isolated by conventional differential centrifugation from the livers of adult Wistar strain rats that fasted overnight, pH 7.6 [83, 84]. The mitochondrial protein concentration was determined using a biuret procedure with bovine serum albumin as the standard.
(§1) Safranine O (10 µM) was used as a membrane potential probe. Fluorescence intensity at 580 nm (excitation at 520 nm) was measured with a Wallac Victor 3 1420 Multilabel Counter (Perkin Elmer, Turku, Finland). The mitochondrial protein concentration was 0.2 mg/mL. The medium for measurements contained 75 mM sucrose, 225 mM mannitol, 10 mM K-HEPES (pH 7.4), 0.02 mM EGTA, and 1 mM KH2PO4. After a 5-min incubation, 5 mM glutamate/malate or 5 mM succinate in the presence of 0.5 µM rotenone were added to produce the mitochondrial potential. Then, the compounds (30 µM) or the same volume of the vehicle (DMSO) were injected into the mitochondrial suspension. After 15–20 min, 12.5 µM CaCl2 was added to each sample to induce the depolarization of mitochondria, and after 5 min, 0.5 µM CCCP was added for maximum depolarization of the mitochondria. The level of depolarization (ΔΨm) was calculated using the fluorescence value after 10-min incubation with 30 µM of compounds (or vehicle) normalized between the fluorescence measurements after substrate and CCCP addition, where fluorescence intensity at 580 nm was 100% after substrate addition and was 0% after CCCP addition.

tubulin = target: T2, tubulin (Sus scrofa, UniProt P02550+P02554); experiment: Tubulin polymerization (microtubule assembly); type: biochemical; conditions: for Tubulin polymerization rate, % of control at 100 µM: read-out: Tubulin polymerization rate (dA355/dt), % Control; for Increase in the rate of tubulin polymerization: 100 µM
T2 construct: purchased Cytoskeleton, Inc. HTS-Tubulin polymerization assay kit
Method: The assembly of tubulin into microtubules was carried out using pure tubulin from an HTS-Tubulin polymerization assay kit (Cytoskeleton, Inc., Denver, CO, USA). A standard polymerization reaction used 100 μL of 4 mg/mL tubulin in 80 mM PIPES (pH 6.9), 0.5 mM EGTA, 2 mM MgCl2, and 1 mM GTP. Polymerization was monitored by recording the change in absorbance on a Wallac Victor 3 1420 Multilabel Counter (Perkin Elmer, Turku, Finland) at λ = 3 55 nm. Electron microscopic monitoring was carried out with a Carl Zeiss Libra 120 electron microscope (Carl Zeiss Meditec AG, Jena, Germany) at 120 kV using negative contrasting.

[3] = system: isolated rat liver mitochondria; experiment: Bypass of rotenone (complex I) inhibition, mitochondrial repolarization; type: biochemical; conditions: mitochondria energized by glutamate/malate, rotenone added
Method: The ability to bypass complex I inhibition was determined for MB, its reduced form MBH2, and compound 4i (Figure 4).
The addition of rotenone to mitochondria energized by complex I substrates (glutamate/malate) causes considerable depolarization.
as §1

[4] = compound 3 µM, EeAChE 7 µM, PI 8 µM, means ± SEM (n = 3)
[5] = compound 20 µM, EeAChE 7 µM, PI 8 µM, means ± SEM (n = 3)
[6] = 100 µM compound, means ± SEM (n = 6)

T2 sequence (P02550 whole entry): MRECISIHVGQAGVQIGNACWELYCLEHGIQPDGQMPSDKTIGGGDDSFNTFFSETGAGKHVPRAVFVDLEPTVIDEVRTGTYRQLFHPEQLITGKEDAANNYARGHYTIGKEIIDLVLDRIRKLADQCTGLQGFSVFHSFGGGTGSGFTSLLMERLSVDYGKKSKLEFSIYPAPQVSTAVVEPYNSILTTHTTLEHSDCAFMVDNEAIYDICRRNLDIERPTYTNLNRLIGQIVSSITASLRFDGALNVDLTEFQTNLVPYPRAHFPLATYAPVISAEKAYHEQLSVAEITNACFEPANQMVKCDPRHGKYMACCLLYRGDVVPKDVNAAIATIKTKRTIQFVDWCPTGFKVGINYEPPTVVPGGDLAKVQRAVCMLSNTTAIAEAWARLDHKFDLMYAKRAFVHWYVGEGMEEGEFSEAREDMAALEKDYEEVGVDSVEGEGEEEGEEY
T2 sequence (P02554 whole entry): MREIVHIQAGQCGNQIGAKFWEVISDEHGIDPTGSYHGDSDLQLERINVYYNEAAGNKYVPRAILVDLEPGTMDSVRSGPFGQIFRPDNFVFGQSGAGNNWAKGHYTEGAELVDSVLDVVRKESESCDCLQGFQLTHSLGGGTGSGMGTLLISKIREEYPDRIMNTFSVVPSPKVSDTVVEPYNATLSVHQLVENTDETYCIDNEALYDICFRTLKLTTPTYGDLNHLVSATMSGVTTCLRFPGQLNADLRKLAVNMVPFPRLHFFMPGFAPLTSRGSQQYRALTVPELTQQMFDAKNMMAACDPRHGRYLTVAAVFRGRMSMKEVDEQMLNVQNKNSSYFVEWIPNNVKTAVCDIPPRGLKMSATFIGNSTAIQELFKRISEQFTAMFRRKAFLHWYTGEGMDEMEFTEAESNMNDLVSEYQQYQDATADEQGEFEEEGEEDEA
T1 sequence (O42275 24-633): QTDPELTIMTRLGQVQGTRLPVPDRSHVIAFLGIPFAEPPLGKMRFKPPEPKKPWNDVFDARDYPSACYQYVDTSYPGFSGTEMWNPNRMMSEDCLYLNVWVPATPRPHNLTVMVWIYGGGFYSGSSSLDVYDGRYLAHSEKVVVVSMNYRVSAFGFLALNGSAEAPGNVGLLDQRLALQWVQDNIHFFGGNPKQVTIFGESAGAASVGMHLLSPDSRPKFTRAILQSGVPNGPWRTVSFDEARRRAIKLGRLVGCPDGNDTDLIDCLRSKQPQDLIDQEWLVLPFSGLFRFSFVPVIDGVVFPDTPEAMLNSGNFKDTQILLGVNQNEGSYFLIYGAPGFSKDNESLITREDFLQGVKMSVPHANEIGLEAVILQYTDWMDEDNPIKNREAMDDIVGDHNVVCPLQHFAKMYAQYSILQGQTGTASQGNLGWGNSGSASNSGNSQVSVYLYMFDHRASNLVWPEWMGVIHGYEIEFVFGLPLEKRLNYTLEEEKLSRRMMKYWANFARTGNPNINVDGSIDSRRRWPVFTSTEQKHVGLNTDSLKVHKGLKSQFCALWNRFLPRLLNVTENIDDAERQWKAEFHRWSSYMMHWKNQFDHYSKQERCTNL

Row | SMILES | inhibition at 3 µM (EeAChE PAS; [4]) | inhibition at 20 µM (EeAChE PAS; [5]) | IC50 [1] | Effect on calcium-induced mitochondrial depolarization at 30 μM [2] | ΔΨm, CI (g/m) [2] | ΔΨm, CII (s/r) [2] | Structure of microtubules formed (electron microscopy) (tubulin) | Tubulin polymerization rate, % of control at 100 µM (tubulin; [6]) | Repolarization of rotenone-depolarized mitochondria (bypass of complex I inhibition) [3] | inhibition at 3 µM (EeAChE PAS) | inhibition at 20 µM (EeAChE PAS) | Pro-oxidant activity in rat brain homogenate [1] | Increase in the rate of tubulin polymerization (tubulin) | PI Displacement, 3 µM (EeAChE PAS; [4]) | PI Displacement, 20 µM (EeAChE PAS; [5]) | Tubulin polymerization rate (dA355/dt), % Control (tubulin; [6])
1 | CN(C)c1ccc2c(c1)Sc1cc(N(C)C)ccc1N2C(=O)CCn1c2c(c3cc(OC(F)(F)F)ccc31)CCCC2 [Compound 4h] | 19.1 ± 1.1% | 33.8 ± 0.4% | 460 ± 320 nM | considerably decrease | 15 ± 2% | 25 ± 1% | straight, long microtubules with a normal structure | 179 ± 27% |  |  |  |  |  |  |  | 
2 | CC1CCc2c(c3cc(OC(F)(F)F)ccc3n2CCC(=O)N2c3ccc(N(C)C)cc3Sc3cc(N(C)C)ccc32)C1 (stereo not shown) [Compound 4i] | 20.4 ± 1.8% | 32.5 ± 0.5% | 580 ± 260 nM | completely suppress | 6 ± 3% | 18 ± 2% | straight, long microtubules with a normal structure | 207 ± 5% | exhibits this type of activity only in a 10 µM concentration |  |  |  |  |  |  | 
3 | CN(C)c1ccc2nc3ccc(=[N+](C)C)cc-3sc2c1 [MB, Methylene blue, reference compound] |  |  | 1900 ± 500 nM | completely suppress | 14 ± 7% | 40 ± 9% | straight, long microtubules with a normal structure | 168 ± 17% | concentration-dependent repolarization | 20.9 ± 1.9% | 40.8 ± 3.7% | no pro-oxidant activity | more than 1.5 fold |  |  | 
4 | CN(C)c1ccc2c(c1)Sc1cc(N(C)C)ccc1N2 [MBH2, reference compound] |  |  | 530 ± 230 nM |  | 0% | 18.2 ± 1.1% |  |  | concentration-dependent repolarization |  |  | no pro-oxidant activity | more than 1.5 fold | 17.7 ± 1.8% | 36.9 ± 3.3% | 178 ± 11 % Control
